Test results published in US20260068882A1, “ARTHROPOD CONTROLLING COMPOSITION” (Firmenich SA, priority 2019, published 2026).
Like-named read-outs stand apart in the source and are kept apart here.

Key:
Aedes aegypti = test: In vitro Warm Body assay, mosquitoes landing on treated warm body; assay type: in vivo
Procedure: (§1) The arthropod controlling effect according to the present invention is determined on mosquitoes using an adapted Warm Body assay as defined in Kröber T, Kessler S, Frei J, Bourquin M, Guerin P M. An in vitro assay for testing mosquito controlling compounds employing a warm body and carbon dioxide as a behavioral activator. J Am Mosq Control Assoc. 2010; 26:381-386.
(§2) The controlling effect according to the present invention is determined by testing the Warm Body assay against the yellow fever mosquito, Aedes aegypti Rockefeller strain. […] Observations of controlling efficacy were made on host-seeking females of uniform age, 5 to 10 days old selected as mentioned in the publication mentioned hereinabove. Tested hungry females had access to 10% sugar solution but were not blood-fed.
(§3) The published protocol has been adapted in not manually counting the landing mosquitoes but automatically using an automatic counting software, the switch from Anopheles gambiae to A. aegypti led to a decrease of mosquitoes' number placed in the tested cage due to the size difference (i.e. 30 mosquitoes instead of 50) and to an increase of lighting as A. aegypti is a diurnal mosquitoes (i.e. 150 lux instead of 4 lux).
as §2, with “A.” for “Aedes”
as §1, with “The” for “The arthropod”, “was assessed” for “is determined on mosquitoes”
as §3, with “Aedes” for “A.”
In this in-vitro assay the number of A. aegypti landing on a warm body treated with the tested stimuli was measured in order to assess the repellency effect. Three replicates were carried on the three different doses: 0.0016%, 0.04% and 1% in ethanol, using 25 A. aegypti 10-12 days old females per cage.
In this in-vitro assay, the number of Aedes aegypti landing on a warm body treated with the tested stimuli was measured in order to assess the repellency effect. Three replicates were carried on the three different doses: 0.0016%, 0.04% and 1% in ethanol.
In this in-vitro assay, the number of Aedes aegypti landing on a warm body treated with the tested stimuli was measured in order to assess the repellency effect. One replicate was carried at different doses ranging from 0.0016% up to 1% in ethanol.

Ixodes ricinus = test: In vitro Warm Plate Assay for ticks; assay type: in vivo; settings: for pest or weed control at 0.0016 % / pest or weed control at 0.04 % / pest or weed control at 1 % / pest or weed control at 0.00032 % / pest or weed control at 0.008 % / pest or weed control at 0.2 %: Ixodes ricinus, read-out: percentage of ticks affected on the Warm Plate; for pest or weed control at 0.00032 %: 0.00032% (Table 10); for pest or weed control at 0.008 %: 0.008% (Table 10); for pest or weed control at 0.2 %: 0.2% (Table 10)
Procedure: Repellent efficacy of the different compounds was assessed against the sheep tick, Ixodes ricinus. I. ricinus is one of the recommended model organisms mentioned by the Guidance on the European Biological Products Regulation [Vol II, Efficacy-Assessment & Evaluation (Parts B+C), v. 3.0, April 2018]. Observations of repellent efficacy were made on last stage nymphs.
The repellent efficacy was assessed using the protocol of the in-vitro Warm Plate Assay as defined in Kröber T, Bourquin M, Guerin P M. A standardized in vivo and in vitro test method for evaluating tick repellents. Pesticide Biochemistry and Physiology. 2013; 107 (2): 160-168.].
The mean±SD number of ticks Ixodes ricinus walking down (affected), falling (affected) or walking-up (non affected) from the warm plate treated with ethanol, N,N-diethyl-3-methylbenzamide, (2,5-dimethyl-2,3-dihydro-1H-inden-2yl)methanol (Ingredient 2) or (2,4,6-trimethyl-2,3-dihydro-1H-inden-2-yl)methanol (Ingredient 1) diluted in ethanol at 0.4 mg/ml and 10 mg/mL was assessed on n groups of 12 ticks (n=2-5).
In this in-vitro assay, the percentage of ticks Ixodes ricinus affected by the stimulus loaded on the warm plate was measured in order to assess the repellency effect. Twelve ticks were assessed per concentrations that goes from 0.0016% up to 1% in ethanol.
Using the same in-vitro setup, the effect on ticks behavior (n≥12) of different stimuli diluted in ethanol at 20% (w/w) was assessed overtime.

[1] = Aedes aegypti, read-out: decrease of landings

Compound: Cc1ccc2c(c1)C(O)C(C)(CO)C2 (racemic) [2-(hydroxymethyl)-2,6-dimethyl-2,3-dihydro-1H-inden-1-ol]
- repellent effect with increasing amount of stimuli (in words) (Aedes aegypti; 0.0016%, 0.04% and 1% in ethanol (FIG. 10)): low decrease of landing

Compound: C[C@H]1O[C@@H]2c3ccccc3C[C@@H]2[C@@H](C)O1 (racemic) [(2RS,4RS,4ARS,9BSR)-2,4-dimethyl-4,4a,5,9b-tetrahydroindeno[1,2-d][1,3]dioxine]
- number of mosquitoes landed on the Warm Body (Aedes aegypti; 0.0016% in ethanol (Table 6)): 17
- number of mosquitoes landed on the Warm Body (Aedes aegypti; 0.04% in ethanol (Table 6)): 13

Compound: C[C@@H]1O[C@H](C)[C@@H]2Cc3ccccc3[C@@H]2O1 (racemic) [(2RS,4RS,4ASR,9BRS)-2,4-dimethyl-4,4a,5,9b-tetrahydroindeno[1,2-d][1,3]dioxine]
- number of mosquitoes landed on the Warm Body (Aedes aegypti; 0.0016% in ethanol (Table 6)): 11
- number of mosquitoes landed on the Warm Body (Aedes aegypti; 0.04% in ethanol (Table 6)): 6
- number of mosquitoes landed on the Warm Body (Aedes aegypti; 1% in ethanol (Table 6)): 2

Compound: C[C@@H]1OC[C@]2(C)Cc3ccccc3[C@@H]2O1 (racemic) [(2RS,4aSR,9bSR)-2,4a-dimethyl-4,4a,5,9b-tetrahydroindeno[1,2-d][1,3]dioxin]
- number of mosquitoes landed on the Warm Body (Aedes aegypti; 0.0016% in ethanol (Table 6)): 34
- number of mosquitoes landed on the Warm Body (Aedes aegypti; 0.04% in ethanol (Table 6)): 18
- number of mosquitoes landed on the Warm Body (Aedes aegypti; 1% in ethanol (Table 6)): 6

Compound: Cc1ccc2c(c1)C[C@]1(C)COC(C)(C)O[C@H]21 (racemic) [(4aRS,9bRS)-2,2,4a,7-tetramethyl-4,4a,5,9b-tetrahydroindeno[1,2-d][1,3]dioxine]
- number of mosquitoes landed on the Warm Body (Aedes aegypti; 0.0016% in ethanol (Table 6)): 51
- number of mosquitoes landed on the Warm Body (Aedes aegypti; 0.04% in ethanol (Table 6)): 44
- number of mosquitoes landed on the Warm Body (Aedes aegypti; 1% in ethanol (Table 6)): 8

Compound: Cc1ccc2c(c1)[C@H]1OC(C)(C)OC[C@@]1(C)C2 (racemic) [(4aRS,9bRS)-2,2,4a,8-tetramethyl-4,4a,5,9b-tetrahydroindeno[1,2-d][1,3]dioxine]
- number of mosquitoes landed on the Warm Body (Aedes aegypti; 0.0016% in ethanol (Table 6)): 59
- number of mosquitoes landed on the Warm Body (Aedes aegypti; 0.04% in ethanol (Table 6)): 12
- number of mosquitoes landed on the Warm Body (Aedes aegypti; 1% in ethanol (Table 6)): 11

Compound: CC1(C)OC[C@@]2(C)Cc3ccccc3[C@H]2O1 (racemic) [(4aRS,9bRS)-2,2,4a-trimethyl-4,4a,5,9b-tetrahydroindeno[1,2-d][1,3]dioxine]
- number of mosquitoes landed on the Warm Body (Aedes aegypti; 0.0016% in ethanol (Table 6)): 42
- number of mosquitoes landed on the Warm Body (Aedes aegypti; 0.04% in ethanol (Table 6)): 47
- number of mosquitoes landed on the Warm Body (Aedes aegypti; 1% in ethanol (Table 6)): 2

Compound: Cc1ccc2c(c1)C[C@]1(C)COCO[C@H]21 (racemic) [(4aRS,9bRS)-4a,7-dimethyl-4,4a,5,9b-tetrahydroindeno[1,2-d][1,3]dioxine]
- number of mosquitoes landed on the Warm Body (Aedes aegypti; 0.0016% in ethanol (Table 6)): 17

Compound: Cc1ccc2c(c1)[C@H]1OCOC[C@@]1(C)C2 (racemic) [(4aRS,9bRS)-4a,8-dimethyl-4,4a,5,9b-tetrahydroindeno[1,2-d][1,3]dioxin]
- number of mosquitoes landed on the Warm Body (Aedes aegypti; 0.0016% in ethanol (Table 6)): 34
- number of mosquitoes landed on the Warm Body (Aedes aegypti; 0.04% in ethanol (Table 6)): 20
- number of mosquitoes landed on the Warm Body (Aedes aegypti; 1% in ethanol (Table 6)): 5

Compound: CC1(C)OC[C@H]2Cc3ccccc3[C@H]2O1 (racemic) [(4aRS,9bSR)-2,2-dimethyl-4,4a,5,9b-tetrahydroindeno[1,2-d][1,3]dioxin]
- number of mosquitoes landed on the Warm Body (Aedes aegypti; 0.0016% in ethanol (Table 6)): 30
- number of mosquitoes landed on the Warm Body (Aedes aegypti; 0.04% in ethanol (Table 6)): 1
- number of mosquitoes landed on the Warm Body (Aedes aegypti; 1% in ethanol (Table 6)): 0

Compound: COC(=O)C1(C)Cc2ccc(C)cc2C1 (racemic) [(+−)-methyl 2,5-dimethyl-2,3-dihydro-1H-indene-2-carboxylate]
- pest or weed control at 0.0016 % (Ixodes ricinus; 0.0016% (Table 11)): 7%
- pest or weed control at 0.04 % (Ixodes ricinus; 0.04% (Table 11)): 18%
- pest or weed control at 1 % (Ixodes ricinus; 1% (Table 11)): 100%

Compound: Cc1ccc2c(c1)CC(C)(C(=O)O)C2 (stereo not shown) [2,5-dimethyl-2,3-dihydro-1H-indene-2-carboxylic acid]
- pest or weed control at 0.0016 % (Aedes aegypti; [1]): 4 to 29%

Compound: COCOCC1(C)Cc2ccc(C)cc2C1 (stereo not shown) [2-((methoxymethoxy)methyl)-2,5-dimethyl-2,3-dihydro-1H-indene]
- pest or weed control at 0.00032 % (Ixodes ricinus): 0%
- pest or weed control at 0.0016 % (Ixodes ricinus; 0.0016% (Table 10)): 17%
- pest or weed control at 0.008 % (Ixodes ricinus): 0%
- pest or weed control at 0.04 % (Ixodes ricinus; 0.04% (Table 10)): 33%
- pest or weed control at 0.2 % (Ixodes ricinus): 54%
- pest or weed control at 1 % (Ixodes ricinus; 1% (Table 10)): 100%

Compound: COC(C)OCC1(C)Cc2ccc(C)cc2C1 (stereo not shown) [2-[(1-methoxyethoxy)methyl]-2,5-dimethylindane]
- pest or weed control at 0.00032 % (Ixodes ricinus): 8%
- pest or weed control at 0.0016 % (Ixodes ricinus; 0.0016% (Table 10)): 0%
- pest or weed control at 0.008 % (Ixodes ricinus): 21%
- pest or weed control at 0.04 % (Ixodes ricinus; 0.04% (Table 10)): 33%
- pest or weed control at 0.2 % (Ixodes ricinus): 64%
- pest or weed control at 1 % (Ixodes ricinus; 1% (Table 10)): 100%

Compound: Cc1ccc2c(c1)C1OC(=O)OCC1(C)C2 (stereo not shown) [4a,8-dimethyl-indano[1,2-d]-1,3-dioxan-2-one]
- decrease of landings (Aedes aegypti; 0.04% in ethanol (FIG. 8)): ~70%

Compound: CC(C)(C)c1ccc2c(c1)CC1(COC1)C2 [5-(tert-butyl)-1,3-dihydrospiro[indene-2,3′-oxetane]]
- pest or weed control at 0.0016 % (Ixodes ricinus; 0.0016% (Table 11)): 0%
- pest or weed control at 0.04 % (Ixodes ricinus; 0.04% (Table 11)): 17%
- pest or weed control at 1 % (Ixodes ricinus; 1% (Table 11)): 86%

Compound: CCc1ccc2c(c1)CC(C)(CO)C2 (stereo not shown) [5-ethyl-2-methyl-2-indanmethanol]
- pest or weed control at 0.04 % (Aedes aegypti; [1]): ~70%

Compound: Cc1cc2c(cc1C)CC(C)(CO)C2 [(2,5,6-trimethyl-2,3-dihydro-1H-inden-2-yl)methanol]
- pest or weed control at 0.0016 % (Ixodes ricinus; 0.0016% (Table 11)): 17%
- pest or weed control at 0.04 % (Ixodes ricinus; 0.04% (Table 11)): 38%
- pest or weed control at 1 % (Ixodes ricinus; 1% (Table 11)): 77%

Compound: CC(=O)OCC1(C)Cc2ccccc2C1 [(2-methyl-2,3-dihydro-1H-inden-2-yl)methyl acetate]
- pest or weed control at 0.04 % (Ixodes ricinus; 0.04% (Table 10)): 25%
- pest or weed control at 0.2 % (Ixodes ricinus): 58%
- pest or weed control at 1 % (Ixodes ricinus; 1% (Table 10)): 100%

Compound: Cc1ccc2c(c1)[C@@H]1O[C@H](C)OC[C@]1(C)C2 [(2R,4aS,9bS)-2,4a,8-trimethyl-4,4a,5,9b-tetrahydroindeno[1,2-d][1,3]dioxin]
- number of mosquitoes landed on the Warm Body (Aedes aegypti; 0.0016% in ethanol (Table 6)): 40
- number of mosquitoes landed on the Warm Body (Aedes aegypti; 0.04% in ethanol (Table 6)): 8
- number of mosquitoes landed on the Warm Body (Aedes aegypti; 1% in ethanol (Table 6)): 10

Compound: CC1OC(C)C2Cc3ccccc3C2O1 (stereo not shown) [ingredient #5, 2,4-dimethyl-4,4a,5,9b-tetrahydroindeno[1,2-d][1,3]dioxine]
- percentage of ticks being affected (Ixodes ricinus; 0.00032% (Table 9)): 0%
- percentage of ticks being affected (Ixodes ricinus; 0.00071% (Table 9)): 0%
- percentage of ticks being affected (Ixodes ricinus; 0.0016% (Table 9)): 17%
- percentage of ticks being affected (Ixodes ricinus; 0.00357% (Table 9)): 0%
- percentage of ticks being affected (Ixodes ricinus; 0.0053% (Table 9)): 0%
- percentage of ticks being affected (Ixodes ricinus; 0.008% (Table 9)): 0%
- percentage of ticks being affected (Ixodes ricinus; 0.0119% (Table 9)): 0%
- percentage of ticks being affected (Ixodes ricinus; 0.0178% (Table 9)): 8%
- percentage of ticks being affected (Ixodes ricinus; 0.0267% (Table 9)): 0%
- percentage of ticks being affected (Ixodes ricinus; 0.04% (Table 9)): 15%
- percentage of ticks being affected (Ixodes ricinus; 0.0598% (Table 9)): 0%
- percentage of ticks being affected (Ixodes ricinus; 0.089% (Table 9)): 7%
- percentage of ticks being affected (Ixodes ricinus; 0.2% (Table 9)): 38%
- percentage of ticks being affected (Ixodes ricinus; 0.447% (Table 9)): 71%
- percentage of ticks being affected (Ixodes ricinus; 1% (Table 9)): 62%

Compound: (2,5-dimethyl-2-indanyl)methyl formate)methanol
- percentage of ticks affected on the Warm Plate (Ixodes ricinus; 0.0016% (Table 11)): 0%
- percentage of ticks affected on the Warm Plate (Ixodes ricinus; 0.04% (Table 11)): 15%
- percentage of ticks affected on the Warm Plate (Ixodes ricinus; 1% (Table 11)): 100%
